Patent US5142095A, “Diarylalkanoids having activity as lipoxygenase inhibitors” (Warner-Lambert Company, priority 1989, dated 1992)

Tests used:
[1] = target: T1, 5-lipoxygenase (Homo sapiens, UniProt P09917); assay: 5-Lipoxygenase Assay Using Isolated Human Leukocytes (5LOA2), 5-HETE formation; assay type: cell-based; conditions: for inhibition at 20 µM: read-out: 5-LOA % inhibition at 20 μM; for IC50: 50% inhibition of 5-HETE formation in human leukocytes, 20 μM arachidonic acid, 10 μM A23187, read-out: 5-LOA IC50
T1 construct: endogenous in cells; host or cells: leukocytes isolated from fresh human blood
T1 sequence (P09917 1-674): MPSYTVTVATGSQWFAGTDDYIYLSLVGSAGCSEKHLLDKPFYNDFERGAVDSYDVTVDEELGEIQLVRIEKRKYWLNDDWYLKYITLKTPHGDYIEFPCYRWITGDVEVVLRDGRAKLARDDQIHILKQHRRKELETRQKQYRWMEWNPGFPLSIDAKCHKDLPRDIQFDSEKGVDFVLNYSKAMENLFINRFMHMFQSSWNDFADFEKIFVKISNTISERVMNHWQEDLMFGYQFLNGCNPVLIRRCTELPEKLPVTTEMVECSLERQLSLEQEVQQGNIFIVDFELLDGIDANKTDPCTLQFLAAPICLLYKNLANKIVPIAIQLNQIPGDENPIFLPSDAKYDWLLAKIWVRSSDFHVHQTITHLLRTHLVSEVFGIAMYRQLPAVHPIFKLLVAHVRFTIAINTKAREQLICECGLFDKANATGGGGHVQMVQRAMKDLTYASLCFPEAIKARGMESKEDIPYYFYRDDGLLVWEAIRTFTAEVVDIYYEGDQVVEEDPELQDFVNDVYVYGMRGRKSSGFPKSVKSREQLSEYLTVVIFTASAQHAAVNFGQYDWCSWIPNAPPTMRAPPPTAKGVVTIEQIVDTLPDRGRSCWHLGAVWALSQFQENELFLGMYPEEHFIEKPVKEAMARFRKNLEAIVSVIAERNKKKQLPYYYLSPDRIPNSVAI
Experimental: 5-Lipoxygenase Assay Using Isolated Human Leukocytes (5LOA2)
The formation of 5-HETE in human leukocytes is considered a measure of 5-lipoxygenase activity. The protocol is described in the following.
Fresh heparinized or EDTA treated human blood is mixed with 6% dextran-3% dextrose in isotonic saline in the ratio 0.25 ml dextran solution per 1.0 ml blood. After mixing the blood is allowed to sit at room temperature for about 90 minutes while the RBC's settle. During this period, the plasma is removed with a plastic pipette to nalgens tubes.
The plasma is centrifuged at 800 rpm ([…]) on the Beckman Td-b refrigerated centrifuge to remove the platelets (which remain in the supernatant). The pellet, consisting of leukocytes and erythrocytes, is treated with 10 ml 0.87% ammonium chloride at room temperature for four minutes, lysing the red cells. At the end of four minutes the cells are diluted with a 2× volume of phosphate buffered saline, pH 7.4, and centrifuged for ten minutes. The cells are washed three times with the phosphate buffered saline. Any of the pelleted cell matter which is not easily resuspended is discarded during the washings--the material contains platelets (12-lipoxygenase activity).
After washing, the cells are resuspended in phosphate buffered saline containing 1.0 mM calcium and 0.5 mM magnesium. After counting, the cells are diluted to 1.5-2.0×10^-7 leukocytes per milliliter.
To each poly propylene reaction tube is added 0.48 ml leukocytes in Ca-Mg phosphate buffered saline, pH 7.4; 1-5 μl test compound dissolved in DMSO and buffer; or DMSO for control tubes.
The tubes preincubate at 37° C. for five minutes.
The reaction is started by adding 20 μl of the following, 0.5 μl, 20 mM arachidonic acid--final concentration =20 μm; 1 μl, 5 mM calcium ionophore A23187--final concentration =10 μm; and 18.5 μl buffer.
The reaction proceeds for five minutes, then is stopped by adding 0.5 ml, 0.5 mM ice cold Tris buffer, pH 8.0. The tubes are chilled on ice for ten minutes and then extracted three times with a total of 3.5 ml ethyl acetate (3.0 ml removed).
The tubes can be stored at this point. For extended storage, the tubes should be filled with nitrogen.
The ethyl acetate is evaporated with a Sorvall Speed-Vac. The residue is dissolved in ethanol. The tubes can also be stored at this point at -20° C. under nitrogen.
A portion of the ethanol solution is injected into the HPLC system for 5-HETE quantitation.
The HPLC system consists of Hewlett-Packard 1040A UV spectrophotometry system with an HP85 computer. Injections are made automatically with a Waters WISP 710B. The pump is a Spectra Physics SP8700. Peaks are measured with a Hewlett Packard 3390A integrator. An RP C-18 column is used. The solvent system is isocratic; the solvent is 70% methanol and 30% 0.01M sodium acetate, pH 5.7, pumped at 1.0 ml/min. The flow is monitored at 235 nm for 5-HETE quantitation. Using a 15 cm Alltech Nucleosil C-18 5 μM column provides for a sample turnaround time of about 16 minutes.
IC50 is calculated as the amount of test agent that causes 50% inhibition of the formation of 5-HETE relative to the control.

[2] = target: T2, Cyclooxygenase (Bos taurus, UniProt O62664); assay: Cyclooxygenase Enzyme Assay (BSV), bovine seminal vesicle powder, PGE2 formation; assay type: biochemical; conditions: 100 μM arachidonic acid, 20 minutes
T2 construct: The assay consists of incubating 2 mg bovine seminal vesicle powder; from tissue; host or cells: bovine seminal vesicle powder
T2 sequence (O62664 25-600): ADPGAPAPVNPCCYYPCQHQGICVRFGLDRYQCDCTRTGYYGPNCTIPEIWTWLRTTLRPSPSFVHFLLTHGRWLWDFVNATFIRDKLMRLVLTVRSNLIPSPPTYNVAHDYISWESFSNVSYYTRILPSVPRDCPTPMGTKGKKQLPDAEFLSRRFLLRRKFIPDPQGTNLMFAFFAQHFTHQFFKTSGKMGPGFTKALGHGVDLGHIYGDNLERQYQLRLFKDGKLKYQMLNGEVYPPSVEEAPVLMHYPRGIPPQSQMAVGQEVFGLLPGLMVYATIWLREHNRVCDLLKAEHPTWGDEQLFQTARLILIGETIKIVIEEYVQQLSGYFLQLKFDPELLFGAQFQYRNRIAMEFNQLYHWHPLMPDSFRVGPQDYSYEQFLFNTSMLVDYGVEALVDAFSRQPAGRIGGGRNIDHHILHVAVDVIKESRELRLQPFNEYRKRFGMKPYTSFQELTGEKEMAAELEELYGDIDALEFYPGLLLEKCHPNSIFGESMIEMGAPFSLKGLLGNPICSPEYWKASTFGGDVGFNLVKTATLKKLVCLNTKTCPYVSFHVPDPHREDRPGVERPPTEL
Experimental: Cyclooxygenase Enzyme Assay (BSV) […]
The assay consists of incubating 2 mg bovine seminal vesicle powder with 2 mM epinephrine, 2.5 mM reduced glutathione, 100 μM arachidonic acid, and the test agent for 20 minutes. The reaction mixture is acidified and extracted with ethyl acetate (3×1.0 ml) and the pooled extract is evaporated to dryness using a Speed Vac Concentrator or under a stream of nitrogen. The residue is dissolved in ethanol An aliquot is applied on 20×20 cm silica gel plate and developed using water:ethyl acetate:hexane:acetic acid (60:54:25:12.5, upper phase) to separate PGE2 from arachidonic acid. ^14 C-PGE2 formed is identified by co-chromatography with authentic ^3 H-PGE2 and the amount of radioacitvity is quantitated using an automatic TLC linear scanner (Berthold, Pittsburgh, Pa.) linked to an Apple II-e computer and an ICso is calculated as the amount of test agent causing 50% inhibition of Cyclooxygenase Enzyme relative to the control.

SMILES | inhibition at 20 µM [1] [%] | IC50 [2] [µM] | IC50 [1] [µM]
COc1cc(/C=C/C(CCCCc2ccccc2)=NO)ccc1O [Example 17, 1-Hepten-3-one, 1-(4-hydroxy-3-methoxyphenyl)-7-phenyl, oxime] |  | 23 | 1.7
COc1cc(C=CC(=O)COc2ccccc2)ccc1O [Example 16, 1(4'-Hydroxy-3'-methoxyphenyl)-4-phenoxy-1-butene-3-one] |  | 130 | 20
OCc1cc(/C=C/C(CCCCc2ccccc2)=NO)ccc1O [Example 20] |  |  | 8.7
O=C(/C=C/c1ccc(C(=O)O)cc1)CCCCc1ccccc1 [Example 6] | 19 |  | 
COc1cc(C=CC(COc2ccccc2)=NO)ccc1O [Example 24, 1-(4-Hydroxy-3-methoxyphenyl)-4-phenoxy-1-buten-3-one oxime] |  | 57 | 2.5
COc1ccc(/C=C/C(CCCCc2ccccc2)=NO)cc1O [Example 18] |  |  | 5.9
COc1cc(C=CC(=O)CSc2ccccc2)ccc1O [Example 16A, 1-(4-Hydroxy-3-methoxyphenyl)-4-phenylthio-1-butene-3-one] |  |  | 12
COc1cc(C=CC(=O)CCCOc2ccccc2)ccc1O [Example 14, 1-(4-Hydroxy-3-methoxyphenyl)-6-phenoxy-1-hexene-3-one] |  | 31 | 11
COc1cc(C=CC(CCCOc2ccccc2)=NO)ccc1O [Example 25, 1-(4-Hydroxy-3-methoxyphenyl)-6-phenoxy-1-hexen-3-one oxime] |  | 170 | 0.71
COc1cc(C=CC(=O)CCc2ccc(O)c(OC)c2)ccc1O [Example 13, 1-Penten-3-one, 1,5-bis(4-hydroxy-3-methoxyphenyl)] |  | 84 | 19
CON=C(C=Cc1ccc(O)c(OC)c1)CCCCc1ccccc1 [Example 26, 1-(4-Hydroxy-3-methoxyphenyl)-7-phenyl-1-hepten-3-one, O-methyl oxime] |  |  | 3

Other lines, results leading:

inhibition at 20 µM [1] [%] | IC50 [2] [µM] | IC50 [1] [µM] | SMILES
30 |  |  | O=C(/C=C/c1ccc(O)cc1)CCCCc1ccccc1 [Example 3]
 | 125 | 1 | ON=C(/C=C/c1ccc(O)c(O)c1)CCCCc1ccccc1 [Example 19, 1-Hepten-3-one, 1-(3,4-dihydroxyphenyl)-7-phenyl, oxime]
 |  | 2 | O=C(/C=C/c1ccc(O)c(O)c1)CCCc1ccccc1 [Example 8]
 |  | 18 | COc1cc(/C=C/C(=O)CCCc2ccccc2)ccc1O [Example 7]
17 |  |  | O=C(/C=C/c1ccc(O)c(CO)c1)CCCCc1ccccc1 [Example 4]
 | 92 | 18 | O=C(/C=C/c1ccc(O)c(CO)c1)CCc1ccccc1 [Example 10]
 |  | 1.7 | O=C(/C=C/c1ccc(O)c(O)c1)CCCCc1ccccc1 [Example 2, 1-(3,4-dihydroxyphenyl)-7-phenyl-1-hepten-3-one]
 | 90 | 0.26 | Nc1cc(/C=C/C(CCc2ccccc2)=NO)ccc1O (single isomer, unassigned) [23 (Isomer B), 1-Penten-3-one, 1-(3-amino-4-hydroxyphenyl)-5-phenyl, oxime]
 |  | 8.8 | O=C(/C=C/c1ccc(O)c(Cl)c1)CCCCc1ccccc1 [Example 5]
 | 110 | 22 | O=C(/C=C/c1ccc(O)c(Cl)c1)CCc1ccccc1 [Example 11]
 | 98 | 0.165 | Nc1cc(/C=C/C(CCc2ccccc2)=NO)ccc1O (single isomer, unassigned) [23 (Isomer A), 1-Penten-3-one, 1-(3-amino-4-hydroxyphenyl)-5-phenyl, oxime]
 | 31 | 15 | COc1cc(/C=C/C(=O)CCc2ccccc2)ccc1O [Example 9]
 | 33 | 0.42 | COc1cc(/C=C/C(CCc2ccccc2)=NO)ccc1O [Example 21, 1-Penten-3-one, 1-(4-hydroxy-3-methoxyphenyl)-5-phenyl, oxime]
 | 169 | 0.079 | Nc1cc(/C=C/C(=O)CCc2ccccc2)ccc1O [Example 15, 1-Pentene-3-one, 1-(3-amino-4-hydroxyphenyl)-5phenyl]
 |  | 35 | OCc1cc(/C=C/C(CCc2ccccc2)=NO)ccc1O [Example 22]
22 | 135 |  | O=C(/C=C/c1ccc(O)c([N+](=O)[O-])c1)CCc1ccccc1 [Example 12, 1-Pentene-3-one, 1-(4-hydroxy-3-nitrophenyl)-5-phenyl]
 |  | 11 | COc1ccc(C=CC(=O)CCCCc2ccccc2)cc1O [Example 1, 1-(3-Hydroxy-4-methoxyphenyl)-7-phenyl-1-hepten3-one]
